Test results reported in patent US11066634B2, “Culture device and methods for enumerating mold colonies” (3M INNOVATIVE PROPERTIES COMPANY, priority 2013, dated 2021).
Where two headings read alike, the source gives them in different places.

What was measured:
Aspergillus niger [1] = assay: Aspergillus niger on PYM plates with EGTA in the inoculum (Example 13); assay type: cell-based; settings: for Reduction in colony area / Colony area: 48 hours; for 48 hour count / 72 hour count: total for three plates
Procedure: A 4-millimolar solution of ethylene glycol tetraacetic acid (EGTA) was prepared by dissolving 15.2 milligrams of EGTA in 10 milliliters of Butterfield's buffer. Serial two-fold dilutions were prepared to provide solutions containing 2 millimolar and 1 millimolar EGTA, respectively. “EGTA”, as used in the Examples, refers to ethylene glycol-bis(2-aminoethylether)-N,N,N′,N′-tetraacetic acid (67-42-5) obtained from Sigma-Aldrich (St. Louis, Mo.). A suspension of Aspergillus niger was diluted and added to the solutions as described in Example 12 to provide final cell concentrations of approximately 5 cfu per ml. Three replicate devices were prepared by inoculating 1 milliliter of the mold suspensions to PYM plates according to the manufacturer's instructions. Images of the plates were obtained after 48 hours and 72 hours of incubation, respectively. […] The average colony size after 48 hours of incubation was determined by imaging the plates and analyzing the images as described above.

[2] = test system: mold species shown in Table 7; settings: for some species; EDTA concentrations higher than 1 wt % of the dry powder coatings
Procedure: The mold species shown in Table 7 were serially diluted, inoculated, incubated, imaged, and analyzed as described for the A. niger cultures.

C. guillermondi = settings: for Colony area (mean ± standard deviation): 91 hours
Procedure: (§1) Thin film culture devices were prepared as described above. Three yeast strains were serially diluted from a frozen stock to provide a final concentration of approximately 100 CFU per ml. The thin film culture devices were inoculated, incubated for 91 hours, imaged, and analyzed as described above.

R. mucilaginosa = settings: for Colony area (mean ± standard deviation): 91 hours
Procedure: as §1

Aspergillus niger [3] = test system: Aspergillus niger
Procedure: A diluted suspension of Aspergillus niger was prepared as described in example 1. A 1 millimolar solution of EDTA was prepared by dissolving 3.7 milligrams of EDTA in 10 milliliters of Butterfield's buffer. The Aspergillus niger diluted suspension was added to the EDTA/Butterfield's to provide a cell concentration of approximately 5 cfu per milliliter. Five replicate devices were prepared by adding one milliliter of the inoculum to PYM plates according to the manufacturer's instructions. A set of control plates was prepared from a 5 cfu per ml solution of Aspergillus niger containing no EDTA.

[4] = test system: Aspergillus niger (ATCC #16484); settings: for Colony Size Reduction: 1 mM vs 0 mM EDTA
Procedure: Fat free skim milk was purchased from a local grocery store. 3.7 milligrams of disodium EDTA dihydrate was added to 10 milliliters of the fat-free skim milk to provide a final concentration of 1 millimolar EDTA. A suspension of Aspergillus niger (ATCC #16484) was diluted in Butterfields buffer to a concentration of approximately 500 colony forming units per milliliter. 100 microliters of the diluted suspension was added to the milk sample. After briefly vortexing, 1 milliliter of the milk sample containing the mold was used to inoculate PYM plates according to the manufacturer's instructions. The PYM plates were incubated at 30° C. for 48 hours, followed by imaging and colony size analysis as described above. A control sample (without milk) was also prepared in Butterfield's buffer.

C. glabrata = settings: for Colony area (mean ± standard deviation): 91 hours
Procedure: as §1

[5] = EDTA at concentrations below 1%
[6] = EDTA concentrations higher than 1%

For O=C(O)CN(CCOCCOCCN(CC(=O)O)CC(=O)O)CC(=O)O [EGTA, ethylene glycol-bis(2-aminoethylether)-N,N,N′,N′-tetraacetic acid], the “Reduction in colony area” value (Aspergillus niger [1]; 1 mM EGTA vs 0 mM control) was −9%, the Colony area (Aspergillus niger [1]; 1 mM EGTA) was 24107 pixels and the 48 hour count (Aspergillus niger [1]; 1 mM EGTA) was 12. For the same compound, the 72 hour count (Aspergillus niger [1]; 1 mM EGTA) was 12, the “Reduction in colony area” value (Aspergillus niger [1]; 2 mM EGTA vs 0 mM control) was −43% and the Colony area (Aspergillus niger [1]; 2 mM EGTA) was 15177 pixels. For the same compound, the 48 hour count (Aspergillus niger [1]; 2 mM EGTA) was 14, the 72 hour count (Aspergillus niger [1]; 2 mM EGTA) was 14 and the “Reduction in colony area” value (Aspergillus niger [1]; 4 mM EGTA vs 0 mM control) was −78%. The Colony area (Aspergillus niger [1]; 4 mM EGTA) was 5772 pixels, the 48 hour count (Aspergillus niger [1]; 4 mM EGTA) was 11 and the 72 hour count (Aspergillus niger [1]; 4 mM EGTA) was 11.

For “disodium ethylenediamine tetraacetic acid dihydrate [EDTA]”, the “delay in the appearance of visible colonies” value [2] was “a delay in the appearance of visible colonies was observed”, the “Colony area (mean ± standard deviation)” value (C. guillermondi; 0.5% EDTA) was 490 ± 129 pixels and the “Colony area (mean ± standard deviation)” value (C. guillermondi; 1% EDTA) was 201 ± 119 pixels. For the same compound, the “Colony area (mean ± standard deviation)” value (C. guillermondi; 2.3% EDTA) was 381 ± 140 pixels, the “Colony area (mean ± standard deviation)” value (C. guillermondi; 4.2% EDTA) was 162 ± 92 pixels and the “effect on colony size” value (C. guillermondi; [5]) was “not affected”. The “Colony area (mean ± standard deviation)” value (R. mucilaginosa; 0.5% EDTA) was 251 ± 95 pixels, the “Colony area (mean ± standard deviation)” value (R. mucilaginosa; 1% EDTA) was 148 ± 76 pixels and the “Colony area (mean ± standard deviation)” value (R. mucilaginosa; 2.3% EDTA) was 0 ± 0 pixels. For the same compound, the “Colony area (mean ± standard deviation)” value (R. mucilaginosa; 4.2% EDTA) was 0 ± 0 pixels, the “effect on colony size” value (R. mucilaginosa; [5]) was “not affected” and the detection of colonies (R. mucilaginosa; [6]) was “not detected”. For the same compound, the Colony area (Aspergillus niger [3]; 1 mM EDTA in inoculum, 48 hours) was 1492 pixels, the “CFUs (48 hr)” value (Aspergillus niger [3]; 1 mM EDTA in inoculum, 48 hr) was 15 and the “CFUs (72 hr)” value (Aspergillus niger [3]; 1 mM EDTA in inoculum, 72 hr) was 16. For the same compound, the “average colony diameter smaller than the control plates” value (Aspergillus niger [3]; 1 mM EDTA, after 48 hours of incubation) was “approximately 20 fold”, the “Colony Area (1 mM EDTA)” value ([4]; Buffer Control (Butterfield's buffer, without milk), 48 hours) was 3276 and the “Colony Size Reduction” value ([4]; Buffer Control, 48 hours) was −91%. For the same compound, the “Colony Area (1 mM EDTA)” value ([4]; Skim Milk sample, 30° C. for 48 hours) was 3789, the “Colony Size Reduction” value ([4]; Skim Milk sample, 48 hours) was −86% and the “Colony area (mean ± standard deviation)” value (C. glabrata; 0.5% EDTA) was 487 ± 300 pixels. The “Colony area (mean ± standard deviation)” value (C. glabrata; 1% EDTA) was 308 ± 201 pixels, the “Colony area (mean ± standard deviation)” value (C. glabrata; 2.3% EDTA) was 0 ± 0 pixels and the “Colony area (mean ± standard deviation)” value (C. glabrata; 4.2% EDTA) was 0 ± 0 pixels. For the same compound, the “effect on colony size” value (C. glabrata; [5]) was “not affected” and the detection of colonies (C. glabrata; [6]) was “not detected”.
